Tests used:
PERK enzyme = PERK enzyme (Homo sapiens (Human), UniProt Q9NZJ5); assay: Recombinant PERK activation assay; format: biochemical; conditions: FIG. 9B
Method: To measure Compound 2-mediated PERK modulation, 200 nM PERK enzyme (Enzo, Farmingdale, NY) was incubated with Compound 2 titer for 30 min at RT. Following incubation, 200 nM substrate (GFP-eIF2α) (ThermoFisher Scientific, Waltham, MA) and 1 mM ATP was added to the mixture and incubated for 60 min at RT. Reaction was stopped by the addition of 10 mM EDTA and phosphorylated eiF2a substrate was detected using 2 nM LanthaScreen Tb-anti-peIF2α (pSer52) antibody (ThermoFisher Scientific, Waltham, MA) then incubated in the dark. After a 60 min incubation at room temperature, TR-FRET was monitored using an excitation wavelength of 340 nm and emission wavelengths of 490 nm and 520 nm.

[1] = system: HT-1080 fibrosarcoma xenograft; assay: HT-1080 xenograft efficacy model; format: in vivo, mice; conditions: 10 mg/kg BID, 14 days of dosing
Method: The HT-1080 xenograft model was performed in compliance with all the laws, regulations and guidelines of the National Institutes of Health (NIH) and with the approval of the Animal Care and Use Committee of Labcorp (Ann Arbor, MI), an AAALAC accredited facility. Food and water were provided ad libitum. […] Female nude mice (6-7 weeks old) were inoculated subcutaneously just below the right high axilla with two million cells in Dulbecco's Phosphate Buffered Saline, using a 27-gauge needle and syringe. When tumor burdens reached 100 mm 3 on average on day 6, mice were randomly assigned into groups such that the mean tumor burden for all groups was within 10% of the overall mean tumor burden for the study population. […] Tumor volume and body weight were measured three time per week. Tumor burden (mg) was estimated from caliper measurements by the formula: tumor burden (mg=mm 3)=(length×width 2)/2.

[2] = system: HT-1080 cell line with GCN2 or PERK knockdown; assay: HT-1080 shRNA knockdown assay; format: cell-based
Method: Fibrosarcoma cell line HT-1080 (catalog […]) was obtained from the American Type Culture Collect (ATTC, Manassas, VA). Cells were grown in RPMI-1640 medium supplemented with 10% heat-inactivated fetal bovine serum and 1% Penicillin/Streptomycin/L-Glutamine (Invitrogen, Carlsbad, CA) at 37° C., 5% CO2, and 95% humidity and maintained at 50-80% confluency until use. shRNAs-expressing constructs targeting PERK, GCN2 or scrambled control were obtained from MISSION (Sigma, St. Louis, MO) and lentiviruses containing each construct were produced in-house. Cells were plated at 400,000 cells/well in 6-well tissue culture plates (ThermoFisher Scientific, Waltham, MA) with complete growth media and incubated overnight at 37° C., 5% CO2, and 95% humidity to attach. The next day, existing media was removed from each well and replenished with 1 mL/well fresh media containing 5 μg/mL polybrene (VectorBuilder, Chicago, IL). Cells were transduced with 200 μL/well corresponding lentivirus for 24 hours before being processed for western blot and cell proliferation assays.

CCRF-CEM leukemia cells = assay: CCRF-CEM ASNase cell proliferation assay; format: cell-based; conditions: Homo sapiens, 1 mU/mL ASNase, 72 h
Method: CCRF-CEM leukemia cells (catalog #CCL-116) were obtained from the American Type Culture Collect (ATTC, Manassas, VA). Cells were grown in RPMI-1640 medium supplemented with 10% heat-inactivated fetal bovine serum (Invitrogen, Carlsbad, CA) and 1% Penicillin/Streptomycin/L-Glutamine at 37° C., 5% CO2, and 95% humidity. Cells were expanded until reaching one million cells per mL at which time they are subcultured or harvested for assay use. Ten thousand cells per well in 200 μL RPMI-1640 supplemented with 10% heat-inactivated fetal bovine serum and 1% Penicillin/Streptomycin were dispensed into a 96-well black clear bottom plate. A serial dilution of test compound and 1 mU/mL ASNase was added in triplicate and plates were incubated for 72 h at 37° C., 5% CO2, and 95% humidity. At the end of the incubation, 40 μL of a […] solution of resazurin (Sigma, St. Louis, MO) in PBS was added to each well of the plate and plates were incubated for an additional 6 h at 37° C., 5% CO2, and 95% humidity. Plates were read on a Synergy2 or equivalent reader (Biotek, Winooski VT) using an excitation of 540 nm and an emission of 600 nm. Data was analyzed using GraphPad Prism software (GraphPad, San Diego, CA) to calculate IC50 values.

HT-1080 spheroids = assay: Spheroid Western blot assay, HT-1080; format: cell-based
Method: NSCLC cell lines H358 (catalog #CRL-5807) and H2030 (catalog #CRL-5914), and fibrosarcoma cell line HT-1080 (catalog […]) were obtained from the American Type Culture Collect (ATTC, Manassas, VA). Cells were grown in RPMI-1640 medium supplemented with 10% heat-inactivated fetal bovine serum and 1% Penicillin/Streptomycin/L-Glutamine (Invitrogen, Carlsbad, CA) at 37° C., 5% CO2, and 95% humidity and maintained at 50-80% confluency until use. Cells were plated at 500,000 cells/well in 24-well Elplasia plates (Corning, Glendale, AZ) with complete growth media at 1 mL/well and incubated overnight at 37° C., 5% CO2, and 95% humidity to form spheroids. The next day, serial dilutions of test compounds were prepared in complete growth media and 500 μL existing media was removed from each well and replaced with fresh media containing compound titers. Spheroids were then incubated with test compounds for 4 hours or 24 hours under the same conditions. […] Western blots were performed to quantify phospho-GCN2 (R&D Systems, Minneapolis, MN), ATF4, CHOP, cleaved PARP, cleaved Caspase 3 and 7, and beta-Actin (Cell Signaling Technology, Danvers, MA). […]

PERK enzyme, sequence (Q9NZJ5 30-1116): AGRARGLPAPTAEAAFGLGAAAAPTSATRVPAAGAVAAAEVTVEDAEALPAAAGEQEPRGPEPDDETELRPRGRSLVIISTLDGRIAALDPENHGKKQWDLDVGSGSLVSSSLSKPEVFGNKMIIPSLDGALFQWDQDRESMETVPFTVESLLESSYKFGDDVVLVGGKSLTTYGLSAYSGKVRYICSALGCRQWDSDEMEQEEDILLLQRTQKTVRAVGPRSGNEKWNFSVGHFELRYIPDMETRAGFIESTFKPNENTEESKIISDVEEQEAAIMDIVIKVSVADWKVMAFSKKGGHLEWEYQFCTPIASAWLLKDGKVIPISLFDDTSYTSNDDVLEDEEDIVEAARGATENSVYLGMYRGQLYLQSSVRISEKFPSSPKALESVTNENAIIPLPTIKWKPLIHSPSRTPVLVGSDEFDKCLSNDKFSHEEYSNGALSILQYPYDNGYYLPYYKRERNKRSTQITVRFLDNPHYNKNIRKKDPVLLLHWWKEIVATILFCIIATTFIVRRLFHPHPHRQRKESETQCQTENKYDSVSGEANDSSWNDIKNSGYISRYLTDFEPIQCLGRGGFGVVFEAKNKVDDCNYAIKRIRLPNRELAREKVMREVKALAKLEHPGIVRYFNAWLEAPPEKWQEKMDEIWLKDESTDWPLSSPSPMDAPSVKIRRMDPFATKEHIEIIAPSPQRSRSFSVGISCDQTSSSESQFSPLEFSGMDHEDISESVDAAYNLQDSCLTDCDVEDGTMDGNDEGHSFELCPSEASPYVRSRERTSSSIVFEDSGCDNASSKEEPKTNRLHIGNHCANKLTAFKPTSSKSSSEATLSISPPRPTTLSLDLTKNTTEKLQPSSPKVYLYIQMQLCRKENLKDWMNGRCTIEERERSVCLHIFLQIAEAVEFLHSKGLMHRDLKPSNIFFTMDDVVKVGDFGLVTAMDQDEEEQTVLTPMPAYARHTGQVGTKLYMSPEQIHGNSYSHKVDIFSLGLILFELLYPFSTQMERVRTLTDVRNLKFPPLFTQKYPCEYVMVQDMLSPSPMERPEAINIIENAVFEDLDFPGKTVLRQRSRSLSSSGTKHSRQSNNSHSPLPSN

Cn1cc(-c2cccc(NS(=O)(=O)c3cc(Cl)cc(CO)c3Cl)c2F)c2c(N)ncnc21 [Example 2, N-(3-(4-amino-7-methyl-7H-pyrrolo[2,3-d]pyrimidin-5-yl)-2-fluorophenyl)-2,5-dichloro-3-(hydroxymethyl)benzenesulfonamide]
concentrations at which PERK enzyme is activated (PERK enzyme): 0.05 to 6 nM
concentrations at which recombinant PERK activity is inhibited (PERK enzyme): above 3 μM
activation of PERK enzyme, % of control (PERK enzyme; at 0.05-6 nM): up to 250 % of control
mean tumor growth inhibition [1]: 50%
compound-mediated spheroid growth inhibition upon knockdown ([2]; FIG. 13C): attenuated upon knockdown of GCN2 but not PERK
reduction of compound-mediated upregulation of ATF4 ([2]; upon knockdown of GCN2, FIG. 13B): 75%
reduction of compound-mediated upregulation of ATF4 ([2]; upon knockdown of PERK, FIG. 13B): 50%
IC50 (CCRF-CEM leukemia cells): ≤ 100 nM
upregulation of ATF4 (Western blot quantification) (HT-1080 spheroids): ≤ 15 fold

Source: patent US20230382915A1, “GCN2 AND PERK KINASE INHIBITORS AND METHODS OF USE THEREOF” (Deciphera Pharmaceuticals, LLC, priority 2021, published 2023)
